# Data taken from US20090018134A1, “Compounds - 945” (AstraZeneca AB, priority 2007, published 2009).
# Biological target: T1, mTOR (Homo sapiens, UniProt P42345)
# T1 construct: FLAG; made in house
# Test: In Vitro mTOR Kinase Assay (Echo), Test (a)(ii)
# Format: biochemical
# Conditions: table of enzyme assay Test (a)(ii); read-out: Test (a)(ii) IC50
# Procedure, shortened: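 AlphaScreen read-out: biotinylated substrate phosphorylation was detected with anti-p70 S6K (T389) 1A5 antibody, Protein A acceptor and streptavidin donor beads after overnight dark incubation at room temperature. Enzyme was FLAG-mTOR 1362-2549 from stable HEK293 cells.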
# T1 sequence (P42345 1362-2549): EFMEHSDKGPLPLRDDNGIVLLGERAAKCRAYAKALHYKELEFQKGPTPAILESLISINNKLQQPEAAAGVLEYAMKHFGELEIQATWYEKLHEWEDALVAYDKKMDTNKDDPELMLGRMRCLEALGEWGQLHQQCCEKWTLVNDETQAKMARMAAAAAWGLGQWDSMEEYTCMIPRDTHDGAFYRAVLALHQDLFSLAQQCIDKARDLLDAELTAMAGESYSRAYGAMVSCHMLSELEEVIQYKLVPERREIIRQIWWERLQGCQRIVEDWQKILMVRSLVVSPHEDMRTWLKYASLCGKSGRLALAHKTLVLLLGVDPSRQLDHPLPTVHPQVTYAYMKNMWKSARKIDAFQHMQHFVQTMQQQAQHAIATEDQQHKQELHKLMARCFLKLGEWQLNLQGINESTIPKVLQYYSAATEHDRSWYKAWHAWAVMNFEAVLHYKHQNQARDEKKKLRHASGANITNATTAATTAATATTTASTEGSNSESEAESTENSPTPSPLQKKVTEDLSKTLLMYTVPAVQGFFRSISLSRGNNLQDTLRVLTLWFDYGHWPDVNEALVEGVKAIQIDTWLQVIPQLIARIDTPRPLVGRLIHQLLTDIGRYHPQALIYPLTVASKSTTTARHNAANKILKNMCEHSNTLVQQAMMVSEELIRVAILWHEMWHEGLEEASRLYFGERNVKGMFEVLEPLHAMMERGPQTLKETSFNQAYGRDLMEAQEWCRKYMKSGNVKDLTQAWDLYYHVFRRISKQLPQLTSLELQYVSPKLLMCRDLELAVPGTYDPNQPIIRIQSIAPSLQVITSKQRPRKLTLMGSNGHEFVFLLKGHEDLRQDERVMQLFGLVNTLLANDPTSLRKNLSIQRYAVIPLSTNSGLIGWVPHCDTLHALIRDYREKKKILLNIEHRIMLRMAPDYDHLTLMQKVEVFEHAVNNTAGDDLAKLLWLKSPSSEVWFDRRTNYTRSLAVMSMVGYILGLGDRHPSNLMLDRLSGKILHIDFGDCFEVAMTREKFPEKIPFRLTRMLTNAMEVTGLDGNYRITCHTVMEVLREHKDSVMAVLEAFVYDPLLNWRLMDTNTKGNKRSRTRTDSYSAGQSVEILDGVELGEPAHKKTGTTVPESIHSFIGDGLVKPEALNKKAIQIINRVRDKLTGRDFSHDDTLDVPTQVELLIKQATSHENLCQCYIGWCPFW
row,Structure (SMILES),IC50
1,"C[C@H]1COCCN1c1cc(C2(S(=O)(=O)c3ccccc3)CC2)nc(-c2ccc(NC(=O)NCc3ncc[nH]3)cc2)n1 [Example 36bn, 1-[4-[4-[1-(benzenesulfonyl)cyclopropyl]-6-[(3S)-3-methylmorpholin-4-yl]pyrimidin-2-yl]phenyl]-3-(1H-imidazol-2-ylmethyl)urea]",6.37 nM
2,"C[C@H]1COCCN1c1cc(C2(S(=O)(=O)c3ccccc3)CC2)nc(-c2ccc(NC(=O)NC3(CO)CC3)cc2)n1 [Example 36bo, 1-[4-[4-[1-(benzenesulfonyl)cyclopropyl]-6-[(3S)-3-methylmorpholin-4-yl]pyrimidin-2-yl]phenyl]-3-[1-(hydroxymethyl)cyclopropyl]urea]",17.6 nM
3,"C[C@H]1COCCN1c1cc(C2(S(=O)(=O)c3ccccc3)CC2)nc(-c2ccc(NC(=O)NC3COC3)cc2)n1 [Example 36bp, 1-[4-[4-[1-(benzenesulfonyl)cyclopropyl]-6-[(3S)-3-methylmorpholin-4-yl]pyrimidin-2-yl]phenyl]-3-(oxetan-3-yl)urea]",1.98 nM
4,"C[C@H]1COCCN1c1cc(C2(S(=O)(=O)c3ccccc3)CC2)nc(-c2ccc(NC(=O)Nc3ncns3)cc2)n1 [Example 36bq, 1-[4-[4-[1-(benzenesulfonyl)cyclopropyl]-6-[(3S)-3-methylmorpholin-4-yl]pyrimidin-2-yl]phenyl]-3-(1,2,4-thiadiazol-5-yl)urea]",1.31 nM
5,"C[C@H]1COCCN1c1cc(C2(S(=O)(=O)c3ccccc3)CC2)nc(-c2ccc(NC(=O)Nc3cnn(C)c3)cc2)n1 [Example 36br, 1-[4-[4-[1-(benzenesulfonyl)cyclopropyl]-6-[(3S)-3-methylmorpholin-4-yl]pyrimidin-2-yl]phenyl]-3-(1-methylpyrazol-4-yl)urea]",1.88 nM
6,"C[C@H]1COCCN1c1cc(C2(S(=O)(=O)c3ccccc3)CCC2)nc(-c2ccc(NC(=O)Nc3cnn(C)c3)cc2)n1 [Example 36bv, 1-[4-[4-[1-(benzenesulfonyl)cyclobutyl]-6-[(3S)-3-methylmorpholin-4-yl]pyrimidin-2-yl]phenyl]-3-(1-methylpyrazol-4-yl)urea]",2.64 nM
7,"C[C@H]1COCCN1c1cc(C2(S(=O)(=O)c3ccccc3)CCCC2)nc(-c2ccc(NC(=O)NC3CC3)cc2)n1 [Example 36bw, 1-[4-[4-[1-(benzenesulfonyl)cyclopentyl]-6-[(3S)-3-methylmorpholin-4-yl]pyrimidin-2-yl]phenyl]-3-cyclopropylurea]",9.09 nM
8,"C[C@H]1COCCN1c1cc(C2(S(=O)(=O)c3ccccc3)CCCC2)nc(-c2ccc(NC(=O)NCCO)cc2)n1 [Example 36bx, 1-[4-[4-[1-(benzenesulfonyl)cyclopentyl]-6-[(3S)-3-methylmorpholin-4-yl]pyrimidin-2-yl]phenyl]-3-(2-hydroxyethyl)urea]",2.69 nM
9,"CNC(=O)Nc1ccc(-c2nc(N3CCOC[C@@H]3C)cc(C3(S(=O)(=O)CCCO)CCOCC3)n2)cc1 [Example 36ca, 1-[4-[4-[4-(3-hydroxypropylsulfonyl)oxan-4-yl]-6-[(3S)-3-methylmorpholin-4-yl]pyrimidin-2-yl]phenyl]-3-methylurea]",310 nM
10,"C[C@H]1COCCN1c1cc(C2(S(=O)(=O)CCCO)CCOCC2)nc(-c2ccc(NC(=O)NC3CC3)cc2)n1 [Example 36cc, 3-cyclopropyl-1-[4-[4-[4-(3-hydroxypropylsulfonyl)oxan-4-yl]-6-[(3S)-3-methylmorpholin-4-yl]pyrimidin-2-yl]phenyl]urea]",129 nM
11,"C[C@H]1COCCN1c1cc(C2(S(=O)(=O)CCCO)CCOCC2)nc(-c2ccc(NC(=O)NCCC#N)cc2)n1 [Example 36ce, 3-(2-cyanoethyl)-1-[4-[4-[4-(3-hydroxypropylsulfonyl)oxan-4-yl]-6-[(3S)-3-methylmorpholin-4-yl]pyrimidin-2-yl]phenyl]urea]",420 nM
12,"CCCNC(=O)Nc1ccc(-c2nc(N3CCOC[C@@H]3C)cc(C3(S(=O)(=O)CCCO)CCOCC3)n2)cc1 [Example 36cf, 3-[4-[4-[4-(3-hydroxypropylsulfonyl)oxan-4-yl]-6-[(3S)-3-methylmorpholin-4-yl]pyrimidin-2-yl]phenyl]-1-propylurea]",286 nM
13,"C[C@H]1COCCN1c1cc(C2(S(=O)(=O)CCCO)CC2)nc(-c2ccc(NC(=O)Nc3nccs3)cc2)n1 [Example 36cj, 1-[4-[4-[1-(3-hydroxypropylsulfonyl)cyclopropyl]-6-[(3S)-3-methylmorpholin-4-yl]pyrimidin-2-yl]phenyl]-3-(1,3-thiazol-2-yl)urea]",3.33 nM
14,"C[C@H]1COCCN1c1cc(C2(S(=O)(=O)CCCO)CC2)nc(-c2ccc(NC(=O)N(C)C3CC3)cc2)n1 [Example 36ck, 1-cyclopropyl-3-[4-[4-[1-(3-hydroxypropylsulfonyl)cyclopropyl]-6-[(3S)-3-methylmorpholin-4-yl]pyrimidin-2-yl]phenyl]-1-methylurea]",2620 nM
15,"C[C@H]1COCCN1c1cc(C2(S(=O)(=O)CCCO)CC2)nc(-c2ccc(NC(=O)NC(C)(C)C)cc2)n1 [Example 36cn, 3-tert-butyl-1-[4-[4-[1-(3-hydroxypropylsulfonyl)cyclopropyl]-6-[(3S)-3-methylmorpholin-4-yl]pyrimidin-2-yl]phenyl]urea]",85.8 nM
16,"C[C@H]1COCCN1c1cc(C2(S(=O)(=O)CCCO)CC2)nc(-c2ccc(NC(=O)NC#N)cc2)n1 [Example 36co, 3-cyano-1-[4-[4-[1-(3-hydroxypropylsulfonyl)cyclopropyl]-6-[(3S)-3-methylmorpholin-4-yl]pyrimidin-2-yl]phenyl]urea]",1620 nM
17,"C[C@H]1COCCN1c1cc(C2(S(=O)(=O)CCCO)CC2)nc(-c2ccc(NC(=O)N3CCC(O)C3)cc2)n1 (stereo partly drawn) [Example 36cp, 3-hydroxy-N-[4-[4-[1-(3-hydroxypropylsulfonyl)cyclopropyl]-6-[(3S)-3-methylmorpholin-4-yl]pyrimidin-2-yl]phenyl]pyrrolidine-1-carboxamide]",1260 nM
18,"C[C@H]1COCCN1c1cc(C2(S(=O)(=O)CCCO)CC2)nc(-c2ccc(NC(=O)NCCS(C)(=O)=O)cc2)n1 [Example 36cq, 1-[4-[4-[1-(3-hydroxypropylsulfonyl)cyclopropyl]-6-[(3S)-3-methylmorpholin-4-yl]pyrimidin-2-yl]phenyl]-3-(2-methylsulfonylethyl)urea]",114 nM

# Continued by falling IC50, values first:
row,IC50,Structure (SMILES)
1,208 nM,"C[C@H]1COCCN1c1cc(C2(S(=O)(=O)CCCO)CCOCC2)nc(-c2ccc(NC(=O)Nc3cnn(C)c3)cc2)n1 [Example 36ch, 1-[4-[4-[4-(3-hydroxypropylsulfonyl)oxan-4-yl]-6-[(3S)-3-methylmorpholin-4-yl]pyrimidin-2-yl]phenyl]-3-(1-methylpyrazol-4-yl)urea]"
2,163 nM,"CCNC(=O)Nc1ccc(-c2nc(N3CCOC[C@@H]3C)cc(C3(S(=O)(=O)CCCO)CCOCC3)n2)cc1 [Example 36cb, 1-ethyl-3-[4-[4-[4-(3-hydroxypropylsulfonyl)oxan-4-yl]-6-[(3S)-3-methylmorpholin-4-yl]pyrimidin-2-yl]phenyl]urea]"
3,147 nM,"C[C@H]1COCCN1c1cc(C2(S(=O)(=O)CCCO)CCOCC2)nc(-c2ccc(NC(=O)NC3CCC3)cc2)n1 [Example 36cd, 3-cyclobutyl-1-[4-[4-[4-(3-hydroxypropylsulfonyl)oxan-4-yl]-6-[(3S)-3-methylmorpholin-4-yl]pyrimidin-2-yl]phenyl]urea]"
4,136 nM,"C[C@H]1COCCN1c1cc(C2(S(=O)(=O)CCCO)CCOCC2)nc(-c2ccc(NC(=O)NCCO)cc2)n1 [Example 36cg, 3-(2-hydroxyethyl)-1-[4-[4-[4-(3-hydroxypropylsulfonyl)oxan-4-yl]-6-[(3S)-3-methylmorpholin-4-yl]pyrimidin-2-yl]phenyl]urea]"
5,114 nM,"C[C@H]1COCCN1c1cc(C2(S(=O)(=O)CCCO)CC2)nc(-c2ccc(NC(=O)NCc3ncc[nH]3)cc2)n1 [Example 36c, 1-[4-[4-[1-(3-hydroxypropylsulfonyl)cyclopro-pyl]-6-[(3S)-3-methylmorpholin-4-yl]pyrimidin-2-yl]phenyl]-3-(1H-imidazol-2-ylmethyl)urea]"
6,68.1 nM,"C[C@H]1COCCN1c1cc(C2(S(=O)(=O)CCCO)CC2)nc(-c2ccc(NC(=O)NC3(C)CC3)cc2)n1 [Example 36cl, 1-[4-[4-[1-(3-hydroxypropylsulfonyl)cyclopropyl]-6-[(3S)-3-methylmorpholin-4-yl]pyrimidin-2-yl]phenyl]-3-(1-methylcyclopropyl)urea]"
7,38.6 nM,"C[C@H]1COCCN1c1cc(C2(S(=O)(=O)CCCO)CCOCC2)nc(-c2ccc(NC(=O)Nc3nccs3)cc2)n1 [Example 36ci, 1-[4-[4-[4-(3-hydroxypropylsulfonyl)oxan-4-yl]-6-[(3S)-3-methylmorpholin-4-yl]pyrimidin-2-yl]phenyl]-3-(1,3-thiazol-2-yl)urea]"
8,14.3 nM,"C[C@H]1COCCN1c1cc(C2(S(=O)(=O)c3ccccc3)CCCC2)nc(-c2ccc(NC(=O)NCCC#N)cc2)n1 [Example 36bz, 1-[4-[4-[1-(benzenesulfonyl)cyclopentyl]-6-[(3S)-3-methylmorpholin-4-yl]pyrimidin-2-yl]phenyl]-3-(2-cyanoethyl)urea]"
9,12 nM,"C[C@H]1COCCN1c1cc(C2(S(=O)(=O)c3ccccc3)CCCC2)nc(-c2ccc(NC(=O)NCCCO)cc2)n1 [Example 36by, 1-[4-[4-[1-(benzenesulfonyl)cyclopentyl]-6-[(3S)-3-methylmorpholin-4-yl]pyrimidin-2-yl]phenyl]-3-(3-hydroxypropyl)urea]"
10,9.46 nM,"C[C@H]1COCCN1c1cc(C2(S(=O)(=O)CCCO)CC2)nc(-c2ccc(NC(=O)NCC(F)F)cc2)n1 [Example 36cm, 3-(2,2-difluoroethyl)-1-[4-[4-[1-(3-hydroxypropylsulfonyl)cyclopropyl]-6-[(3S)-3-methylmorpholin-4-yl]pyrimidin-2-yl]phenyl]urea]"
11,1.18 nM,"CNC(=O)Nc1ccc(-c2nc(N3CCOC[C@@H]3C)cc(C3(S(=O)(=O)c4ccccc4)CCC3)n2)cc1 [Example 36bu, 1-[4-[4-[1-(benzenesulfonyl)cyclobutyl]-6-[(3S)-3-methylmorpholin-4-yl]pyrimidin-2-yl]phenyl]-3-methylurea]"
